# From patent publication US20130281399A1, “TREATMENT OF DISEASES BY EPIGENETIC REGULATION” (RVX Therapeutics Inc., priority 2012, published 2013)
# Biological target: T1, Brd4 bromodomain 1 (Homo sapiens, UniProt O60885)
# T1 construct: made in house; host or cells: E. coli BL21(DE3)
# Assay: Inhibition of binding of tetra-acetylated histone H4 to Brd4 bromodomain 1 (TR-FRET)
# Conditions: His-tagged Brd4 bromodomain 1 200 nM, tetra-acetylated histone H4 peptide 25-50 nM, 2 hours room temperature
# Protocol: Proteins were cloned and overexpressed with a N-terminal 6×His tag, then purified by nickel affinity followed by size exclusion chromatography. Briefly, E. coli BL21(DE3) cells were transformed with a recombinant expression vector encoding N-terminally Nickel affinity tagged bromodomains from Brd2, Brd3, Brd4. Cell cultures were incubated at 37° C. with shaking to the appropriate density and induced overnight with IPTG. The supernatant of lysed cells was loaded onto Ni-IDA column for purification. Eluted protein was pooled, concentrated and further purified by size exclusion chromatography. Fractions representing monomeric protein were pooled, concentrated, aliquoted, and frozen at −80° C. for use in subsequent experiments.
# For inhibition assays, serially diluted test compound was added to these reactions in a 0.2% final concentration of DMSO. Final buffer concentrations were 30 mM HEPES pH 7.4, 30 mM NaCl, 0.3 mM CHAPS, 20 mM phosphate pH 7.0, 320 mM KF, 0.08% BSA). […] The binding inhibitory activity was shown by a decrease in 665 nm fluorescence relative to 620 nm. IC50 values were determined from a dose response curve.
row,FRET activity (<50 uM),Compound
1,Inactive,"COc1cc(OC)c2c(=O)[nH]c(-c3ccc(Nc4ccc(C)cc4)cc3)nc2c1 [Example 61, 5,7-Dimethoxy-2-(4-(p-tolylamino)phenyl)quinazolin-4(3H)-one]"
2,Active,"COc1cc(OC)c2c(=O)[nH]c(-c3ccc(OC4CCN(C(C)=O)CC4)cc3)nc2c1 [Example 64, 2-(4-(1-Acetylpiperidin-4-yloxy)phenyl)-5,7-dimethoxyquinazolin-4(3H)-one]"
3,Active,"COc1cc(OC)c2c(=O)[nH]c(-c3ccc(N4CCC(NS(C)(=O)=O)CC4)cc3)nc2c1 [Example 14, N-(1-(4-(5,7-Dimethoxy-4-oxo-3,4-dihydroquinazolin-2-yl)phenyl)piperidin-4-yl)methanesulfonamide]"
4,Active,"COc1cc(OC)c2c(=O)[nH]c(-c3ccc(N4CCNC(C)C4)cc3)nc2c1 (stereo not drawn) [Example 48, 5,7-Dimethoxy-2-(4-(3-methylpiperazin-1-yl)phenyl)quinazolin-4(3H)-one]"
5,Inactive,"Cc1cc(-c2nc3cc(F)cc(N4CCCC4)c3c(=O)[nH]2)cc(C)c1OCCN1CCCC1 [Example 82, 2-(3,5-Dimethyl-4-(2-(pyrrolidin-1-yl)ethoxy)phenyl)-7-fluoro-5-(pyrrolidin-1-yl)quinazolin-4(3H)-one]"
6,Active,"COc1cc(OC)c2c(=O)[nH]c(-c3ccc4[nH]c(CN5CCCC5)cc4c3)nc2c1 [Example 55, 5,7-Dimethoxy-2-(2-(pyrrolidin-1-ylmethyl)-1H-indol-5-yl)quinazolin-4(3H)-one]"
7,Inactive,"COc1cc(OC)c2c(=O)[nH]c(-c3ccc(N4CCN(C(=O)c5ccccc5)CC4)cc3)nc2c1 [Example 18, 2-(4-(4-Benzoylpiperazin-1-yl)phenyl)-5,7-dimethoxyquinazolin-4(3H)-one]"
8,Active,"COc1cc(OC)c2c(=O)[nH]c(-c3ccc(CN4CCC(N(C(C)=O)C(C)C)CC4)cc3)nc2c1 [Example 94, N-(1-(4-(5,7-Dimethoxy-4-oxo-3,4-dihydroquinazolin-2-yl)benzyl)piperidin-4-yl)-N-isopropylacetamide]"
9,Active,"COc1cc(OC)c2c(=O)[nH]c(-c3ccc(OC4CCN(C(=O)N(C)C)CC4)cc3)nc2c1 [Example 63, 4-(4-(5,7-Dimethoxy-4-oxo-3,4-dihydroquinazolin-2-yl)phenoxy)-N,N-dimethylpiperidine-1-carboxamide]"
10,Inactive,"COc1cc(OC)c2c(=O)[nH]c(-c3ccc(N4CCC(NC(=O)c5ccccc5)CC4)cc3)nc2c1 [Example 20, N-(1-(4-(5,7-Dimethoxy-4-oxo-3,4-dihydroquinazolin-2-yl)phenyl)piperidin-4-yl)benzamide]"
11,Active,"COc1cc(OC)c2c(=O)[nH]c(-c3ccc(N4CCN(C(=O)CC(F)(F)F)CC4)cc3)nc2c1 [Example 26, 5,7-Dimethoxy-2-(4-(4-(3,3,3-trifluoropropanoyl)piperazin-1-yl)phenyl)quinazolin-4(3H)-one]"
12,Active,"COc1cc(OC)c2c(=O)[nH]c(-c3ccc(N4CCN(C(=O)C5CC5)CC4)cc3)nc2c1 [Example 28, 2-(4-(4-(Cyclopropanecarbonyl)piperazin-1-yl)phenyl)-5,7-dimethoxyquinazolin-4(3H)-one]"
13,Active,"COc1cc(OC)c2c(=O)[nH]c(-c3ccc(N4CCCN(C)CC4)cc3)nc2c1 [Example 34, 5,7-Dimethoxy-2-(4-(4-methyl-1,4-diazepan-1-yl)phenyl)quinazolin-4(3H)-one]"
14,Active,"COc1cc(OC)c2c(=O)[nH]c(-c3ccc(N4CCC(N(C)C(C)=O)C4)cc3)nc2c1 (stereo not drawn) [Example 46, N-(1-(4-(5,7-dimethoxy-4-oxo-3,4-dihydroquinazolin-2-yl)phenyl)pyrrolidin-3-yl)-N-methylacetamide]"
15,Active,"COc1cc(OC)c2c(=O)[nH]c(-c3ccc(N4CCN(CCO)CC4)cc3)nc2c1 [Example 1, 2-(4-(4-(2-hydroxyethyl)piperazin-1-yl)phenyl)-5,7-dimethoxyquinazolin-4(3H)-one]"
